Test results: patent US8394792B2, “Heterocyclic derivatives” (C&C Research Laboratories, priority 2008, dated 2013)
≈ marks a conversion by molar mass, not a printed value. Counter-ions that a name gives are not always drawn. Like-named read-outs stand apart in the source and are kept apart here.

How the values were obtained:
hURAT1 = target: T1, hURAT1 (Homo sapiens, UniProt Q96S37); experiment: Test for inhibiting urate reuptake activity via hURAT1 (uric acid transport assay in hURAT1-overexpressed HEK293 cell line); type: cell-based; conditions: hURAT1-overexpressed HEK293 cells, [14C]-uric acid uptake, 100 μM uric acid; read-out: IC50 (μM) hURAT, level of uric acid reuptake inhibition
T1 construct: expressed in transfected cells; host or cells: HEK293 (human kidney cell line), transient transfection with Fugene6
T1 sequence (Q96S37 1-553): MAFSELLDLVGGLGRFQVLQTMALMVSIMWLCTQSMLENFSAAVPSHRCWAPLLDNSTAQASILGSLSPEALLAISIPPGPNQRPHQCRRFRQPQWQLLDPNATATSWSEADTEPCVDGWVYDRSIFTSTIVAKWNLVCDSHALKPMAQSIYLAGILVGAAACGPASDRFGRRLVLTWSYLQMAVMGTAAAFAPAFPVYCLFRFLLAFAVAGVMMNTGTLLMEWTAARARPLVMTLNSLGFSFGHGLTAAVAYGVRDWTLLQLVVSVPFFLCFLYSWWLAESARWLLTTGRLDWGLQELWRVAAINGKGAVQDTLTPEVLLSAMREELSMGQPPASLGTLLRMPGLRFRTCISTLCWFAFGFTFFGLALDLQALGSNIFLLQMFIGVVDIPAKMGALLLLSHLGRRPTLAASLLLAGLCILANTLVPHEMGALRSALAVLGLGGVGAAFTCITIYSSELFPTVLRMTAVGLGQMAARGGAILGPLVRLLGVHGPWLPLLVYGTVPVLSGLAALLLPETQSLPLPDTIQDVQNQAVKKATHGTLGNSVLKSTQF
Protocol: Test for Inhibiting Urate Reuptake Activity Via hURAT1
[hURAT1 Overexpression by Transient Transfection in Human Kidney Cell Line]
A human kidney cell line, HEK293 was incubated by using OptiMEM medium in 100 mm dish at (3*10^6 cells) for 24 hours. In order for the expression of hURAT1, a transfection mixture solution (Fugene6 18 μl:hURAT1 DNA 6 μg=3:1, in 600 μl OptiMEM medium/dish) was prepared and kept for 15 minutes at room temperature. To each dish, 600 μl of the mixture solution was injected and then incubated in 37[…] cell incubator for 24 hours. The hURAT1-overexpressed HEK293 cell line was trypsinized and cells were harvested. Cells were resuspended in medium and seeded at 6*10^5 cells/well and incubated for 24 hours in 24-well plate which was surface-coated with Poly-D-Lysine.
[Uric Acid Transport Assay in hURAT1-Overexpressed HEK293 Cell Line]
For each concentration, the stock sample solution was diluted in PBS (1 μl in 800 μl of PBS) as 1.25 fold concentrated working sample solution to obtain final concentrations of 0.01, 0.1, 1 and 10 μM. The hURAT1-overexpressed cell line was washed with 1 ml of PBS. After washing, PBS was discarded and the sample solution was diluted by 1.25 fold with PBS. Preincubation of cells with 200 μl/well of sample solution made above was conducted for 30 minutes in 37[…] cell incubator. After the incubation, each well was treated with 50 μl of PBS containing 500 μM [^14C]-uric acid (final 100 μM of uric acid/well). Cells were incubated for 2 minutes. The cells were washed twice with 1 ml of PBS.
To measure the uric acid uptake, each well was treated with 150 μl of M-per buffer (PIERCE) and kept in 37° C. cell incubator for 30 minutes to make cell lysates. 150 μl of cell lysates was transferred into test tube and 4 ml of scintillation cocktail was added. CPM value of [^14C]-uric acid absorbed into cells was detected using liquid scintillation counter. IC50 for the inhibition of uric acid uptake by each test sample was analyzed by computational numerical processing.

[1] = Test for solubility according to pH; type: physicochemical; conditions: 37° C. 2 hours; for solubility at 2 h: thermodynamic from solid
CYP2C9 = CYP2C9 (Homo sapiens, UniProt P11712); experiment: biochemical
[2] = second solution pH about 6.8, 2 mg/mL
[3] = 37 °C, pH 1.2, simulated gastric fluid, first solution pH about 1.2, 2 mg/mL, read-out: Solubility (μg/mL) pH 1.2
[4] = 37 °C, pH 6.8, aqueous buffer, second solution pH about 6.8, 2 mg/mL, read-out: Solubility (μg/mL) pH 6.8

Sequence of CYP2C9 (P11712 whole entry): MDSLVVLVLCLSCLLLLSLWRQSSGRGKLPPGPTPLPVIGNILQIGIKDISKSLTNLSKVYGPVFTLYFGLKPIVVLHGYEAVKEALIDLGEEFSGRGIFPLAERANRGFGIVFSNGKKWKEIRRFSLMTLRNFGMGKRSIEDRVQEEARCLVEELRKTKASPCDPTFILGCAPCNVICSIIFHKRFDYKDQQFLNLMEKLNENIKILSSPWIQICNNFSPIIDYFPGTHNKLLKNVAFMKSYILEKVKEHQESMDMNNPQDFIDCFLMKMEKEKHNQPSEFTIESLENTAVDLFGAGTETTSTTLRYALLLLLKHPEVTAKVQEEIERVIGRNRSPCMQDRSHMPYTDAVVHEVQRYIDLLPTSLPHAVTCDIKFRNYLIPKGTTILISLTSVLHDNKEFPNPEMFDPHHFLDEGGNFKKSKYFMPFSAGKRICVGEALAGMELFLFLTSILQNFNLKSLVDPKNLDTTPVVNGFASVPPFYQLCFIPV

IC50 (hURAT1) [µM]	Solubility (μg/mL) pH 1.2 ([1]; first solution pH about 1.2, 2 mg/mL) [μg/mL]	Solubility (μg/mL) pH 6.8 [1, 2] [μg/mL]	IC50 (CYP2C9) [µM]	solubility at 2 h [1, 3] [µg/mL]	solubility at 2 h [1, 4] [µg/mL]	Compound	solubility at 2 h ([1]; pH 1.2, simulated gastric fluid, first solution pH about 1.2, 2 mg/mL, read-out: Solubility (μg/mL) pH 1.2) [µg/mL]	solubility at 2 h ([1]; pH 6.8, aqueous buffer, second solution pH about 6.8, 2 mg/mL, read-out: Solubility (μg/mL) pH 6.8) [µg/mL]
0.376	808.87	156.54	> 20	–	–	O=C(c1cc(Cl)c(O)c(Cl)c1)N1CCOc2cnccc21 [Compound 41, (3,5-dichloro-4-hydroxy-phenyl)-(2,3-dihydro-pyrido[3,4-b][1,4]oxazin-1-yl)-methanone]	–	–
0.3	–	–	> 20	106 (≈ 247 µM)	109 (≈ 255 µM)	Cc1ccc2c(n1)OCCN2C(=O)c1cc(Br)c(O)c(Br)c1 [Compound 7, (3,5-dibromo-4-hydroxy-phenyl)-(6-methyl-2,3-dihydro-pyrido[2,3-b][1,4]oxazin-1-yl)-methanone]	–	–
0.363	–	–	> 20	1250 (≈ 2580 µM)	134 (≈ 275 µM)	COC(=O)COc1c(Br)cc(C(=O)N2CCOc3ccncc32)cc1Br [Compound 24, (2,6-dibromo-4-(2,3-dihydro-pyrido[4,3-b][1,4]oxazin-4-carbonyl)-phenoxy]-acetic acid methyl ester]	–	–
0.2	–	–	18.4	1310 (≈ 3060 µM)	143 (≈ 333 µM)	O=C(Cc1cc(Br)c(O)c(Br)c1)N1CCOc2ccncc21 [Compound 42, 2-(3,5-dibromo-4-hydroxy-phenyl)-1-(2,3-dihydro-pyrido[4,3-b][1,4]oxazin-4-yl)-ethanone]	–	–
0.458	–	453	4.5	1510	–	O=C(c1cc(Cl)c(O)c(Cl)c1)N1CCOc2cnccc21 [Compound 15, (3,5-dichloro-4-hydroxy-phenyl)-(2,3-dihydro-pyrido[3,4-b][1,4]oxazin-1-yl)-methanone bromic acid salt]	–	–
0.0179	–	–	> 20	6.4 (≈ 14.6 µM)	330 (≈ 751 µM)	N#Cc1cnc2c(c1)N(C(=O)c1cc(Br)c(O)c(Br)c1)CCO2 [Compound 47-2, 1-(3,5-dibromo-4-hydroxy-benzoyl)-2,3-dihydro-1H-pyrido[2,3-b][1,4]oxazin-7-carbonitrile]	–	–
0.0043	–	–	9.45	< 0.1	153 (≈ 317 µM)	O=C(c1cc(Br)c(O)c(Br)c1)N1CCOc2ncc(C(F)(F)F)cc21 [Compound 22-2, (3,5-dibromo-4-hydroxy-phenyl)-(7-trifluoromethyl-2,3-dihydro-pyrido[2,3-b][1,4]oxazin-1-yl)-methanone]	–	–
0.175	–	–	1.93	1560 (≈ 4650 µM)	743 (≈ 2210 µM)	O=C(c1cc(Cl)c(O)c([N+](=O)[O-])c1)N1CCOc2cnccc21 [Compound 36, (3-chloro-4-hydroxy-5-nitro-phenyl)-(2,3-dihydro-pyrido[3,4-b][1,4]oxazin-1-yl)-methanone]	–	–
0.212	–	–	> 20	1930 (≈ 6640 µM)	114 (≈ 393 µM)	O=C(c1ccc(O)c(Cl)c1)N1CCOc2ccncc21 [Compound 37, (3-chloro-4-hydroxy-phenyl)-(2,3-dihydro-pyrido[4,3-b][1,4]oxazin-4-yl)-methanone]	–	–
0.277	–	–	> 20	1460 (≈ 3240 µM)	234 (≈ 519 µM)	O=S(=O)(c1cc(Br)c(O)c(Br)c1)N1CCOc2ccncc21 [Compound 35-2, 2,6-dibromo-4-(2,3-dihydro-pyrido[4,3-b][1,4]oxazin-4-sulfonyl)-phenol]	–	–
0.028	–	–	> 40	7.2 (≈ 16.1 µM)	332 (≈ 740 µM)	O=C(c1cc(Br)c(O)c(Br)c1)N1CCOc2ccnc(Cl)c21 [Compound 30, (5-chloro-2,3-dihydro-pyrido[4,3-b][1,4]oxazin-4-yl)-(3,5-dibromo-4-hydroxy-phenyl)-methanone]	–	–
0.353	–	–	> 20	986 (≈ 2230 µM)	344 (≈ 778 µM)	CC1(C)CN(C(=O)c2cc(Br)c(O)c(Br)c2)c2cnccc2O1 [Compound 8, (3,5-dibromo-4-hydroxy-phenyl)-(2,2-dimethyl-2,3-dihydro-pyrido[4,3-b][1,4]oxazin-4-yl)-methanone]	–	–
0.012	–	–	> 20	207 (≈ 484 µM)	579 (≈ 1350 µM)	Cc1cnc2c(c1)N(C(=O)c1cc(Br)c(O)c(Br)c1)CCO2 [Compound 27-2, (3,5-dibromo-4-hydroxy-phenyl)-(7-methyl-2,3-dihydro-pyrido[2,3-b][1,4]oxazin-1-yl)-methanone]	–	–
0.235	–	–	> 20	1090 (≈ 3720 µM)	382 (≈ 1310 µM)	O=C(c1cc(F)c(O)c(F)c1)N1CCOc2ccncc21 [Compound 29, (3,5-difluoro-4-hydroxy-phenyl)-(2,3-dihydro-pyrido[4,3-b][1,4]oxazin-4-yl)-methanone]	–	–
0.126	–	–	16.6	1480 (≈ 4410 µM)	747 (≈ 2230 µM)	O=C(c1cc(Cl)c(O)c([N+](=O)[O-])c1)N1CCOc2ccncc21 [Compound 14, (3-chloro-4-hydroxy-5-nitro-phenyl)-(2,3-dihydro-pyrido[4,3-b][1,4]oxazin-4-yl)-methanone]	–	–
0.0408	–	–	> 60	1880 (≈ 5800 µM)	132 (≈ 407 µM)	O=C(c1ccc(O)c(C(F)(F)F)c1)N1CCOc2ccncc21 [Compound 12, (2,3-dihydro-pyrido[4,3-b][1,4]oxazin-4-yl)-(4-hydroxy-3-trifluoromethyl-phenyl)-methanone]	–	–
0.079	–	–	12.1	56.1 (≈ 135 µM)	277 (≈ 669 µM)	O=C(c1cc(Br)c(O)c(Br)c1)N1CCOc2ncccc21 [Compound 1, (3,5-dibromo-4-hydroxy-phenyl)-(2,3-dihydro-pyrido[2,3-b][1,4]oxazin-1-yl)-methanone]	–	–

Compound	IC50 (hURAT1) [µM]	Solubility (μg/mL) pH 1.2 ([1]; first solution pH about 1.2, 2 mg/mL) [μg/mL]	Solubility (μg/mL) pH 6.8 [1, 2] [μg/mL]	IC50 (CYP2C9) [µM]	solubility at 2 h [1, 3] [µg/mL]	solubility at 2 h [1, 4] [µg/mL]	solubility at 2 h ([1]; pH 1.2, simulated gastric fluid, first solution pH about 1.2, 2 mg/mL, read-out: Solubility (μg/mL) pH 1.2) [µg/mL]	solubility at 2 h ([1]; pH 6.8, aqueous buffer, second solution pH about 6.8, 2 mg/mL, read-out: Solubility (μg/mL) pH 6.8) [µg/mL]
Br.O=C(c1cc(Cl)c(O)c(Cl)c1)N1CCOc2ccncc21 [Compound 13, (3,5-dichloro-4-hydroxy-phenyl)-(2,3-dihydro-pyrido[4,3-b][1,4]oxazin-4-yl)-methanone bromic acid salt]	0.337	–	–	> 60	–	–	1400	847
O=C(c1cc(Cl)c(O)c(Cl)c1)N1CCOc2ccncc21 [Compound 39, (3,5-dichloro-4-hydroxy-phenyl)-(2,3-dihydro-pyrido[4,3-b][1,4]oxazin-4-yl)-methanone]	0.0884	–	–	> 20	1340 (≈ 4120 µM)	480 (≈ 1480 µM)	–	–
